Values belong to the molecule of their own block, whether it stands above or below them.
What was measured:
[1] = biological target: T1, Amine oxidase [flavin-containing] B (Homo sapiens, UniProt P27338); experiment: biochemical
T1 sequence (P27338 whole entry): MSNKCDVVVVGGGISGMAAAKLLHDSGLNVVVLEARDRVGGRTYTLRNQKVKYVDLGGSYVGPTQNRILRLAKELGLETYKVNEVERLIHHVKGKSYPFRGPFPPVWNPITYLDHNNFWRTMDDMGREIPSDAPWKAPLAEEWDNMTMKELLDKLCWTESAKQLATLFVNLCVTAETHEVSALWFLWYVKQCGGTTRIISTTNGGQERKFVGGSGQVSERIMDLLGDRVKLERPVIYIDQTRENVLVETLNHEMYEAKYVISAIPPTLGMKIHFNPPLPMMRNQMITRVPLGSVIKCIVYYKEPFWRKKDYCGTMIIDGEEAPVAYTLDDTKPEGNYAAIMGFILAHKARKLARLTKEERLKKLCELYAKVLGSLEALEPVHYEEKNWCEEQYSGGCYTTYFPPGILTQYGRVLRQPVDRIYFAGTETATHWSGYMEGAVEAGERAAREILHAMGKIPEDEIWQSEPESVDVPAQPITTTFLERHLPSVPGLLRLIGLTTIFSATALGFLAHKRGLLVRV

[2] = biological target: T2, Lysine-specific histone demethylase 2 (Homo sapiens, UniProt Q8NB78); experiment: Inhibition of LSD2 (unknown origin) using Lys4-dimethylated H3 (1-20) peptide as substrate incubated for 30 mins by peroxidase-coupled assay
T2 sequence (Q8NB78 whole entry): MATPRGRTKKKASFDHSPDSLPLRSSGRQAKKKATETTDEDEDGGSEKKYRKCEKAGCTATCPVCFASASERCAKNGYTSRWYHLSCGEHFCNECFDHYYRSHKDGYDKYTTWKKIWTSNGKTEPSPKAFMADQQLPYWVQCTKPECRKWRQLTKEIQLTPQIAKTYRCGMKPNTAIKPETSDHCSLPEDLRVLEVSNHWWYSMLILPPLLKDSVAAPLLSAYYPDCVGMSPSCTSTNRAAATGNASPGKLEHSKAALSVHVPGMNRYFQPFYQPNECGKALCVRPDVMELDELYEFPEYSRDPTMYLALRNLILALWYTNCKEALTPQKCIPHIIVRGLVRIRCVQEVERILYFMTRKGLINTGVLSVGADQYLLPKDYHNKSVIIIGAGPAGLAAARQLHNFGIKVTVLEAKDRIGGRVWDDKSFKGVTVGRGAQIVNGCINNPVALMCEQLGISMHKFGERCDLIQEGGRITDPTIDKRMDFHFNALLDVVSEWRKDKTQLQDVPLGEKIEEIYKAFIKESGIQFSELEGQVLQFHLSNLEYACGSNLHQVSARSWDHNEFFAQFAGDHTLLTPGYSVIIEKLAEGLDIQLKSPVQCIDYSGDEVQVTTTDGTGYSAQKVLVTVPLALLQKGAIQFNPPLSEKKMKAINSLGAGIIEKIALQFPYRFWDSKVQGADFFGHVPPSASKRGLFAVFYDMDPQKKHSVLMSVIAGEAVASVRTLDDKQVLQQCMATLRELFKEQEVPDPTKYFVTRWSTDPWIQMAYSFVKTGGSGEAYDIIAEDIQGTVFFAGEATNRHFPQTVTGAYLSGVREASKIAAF

[3] = biological target: T3, Amine oxidase [flavin-containing] A (Homo sapiens, UniProt P21397); experiment: Inhibition of human MAO-A expressed in baculovirus infected BTI insect cells using tyramine as substrate incubated for 30 mins by peroxidase-coupled assay
T3 sequence (P21397 whole entry): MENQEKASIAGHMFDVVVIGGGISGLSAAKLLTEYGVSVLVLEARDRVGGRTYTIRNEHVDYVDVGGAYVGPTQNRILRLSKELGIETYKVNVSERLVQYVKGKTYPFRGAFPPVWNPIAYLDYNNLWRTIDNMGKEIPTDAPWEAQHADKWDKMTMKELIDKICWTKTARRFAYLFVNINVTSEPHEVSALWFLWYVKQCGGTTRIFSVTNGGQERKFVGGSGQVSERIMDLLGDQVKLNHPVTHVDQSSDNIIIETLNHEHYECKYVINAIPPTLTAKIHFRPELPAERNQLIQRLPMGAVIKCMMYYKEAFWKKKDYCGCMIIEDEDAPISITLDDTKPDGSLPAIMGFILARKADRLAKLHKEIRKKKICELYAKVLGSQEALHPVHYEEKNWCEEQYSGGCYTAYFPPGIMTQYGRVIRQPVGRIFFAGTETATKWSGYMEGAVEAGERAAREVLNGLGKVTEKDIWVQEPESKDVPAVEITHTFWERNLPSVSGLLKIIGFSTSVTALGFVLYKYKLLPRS

[4] = test system: HCT-116; experiment: Antiproliferative activity against human HCT116 cells after 48 hrs by MTT assay; assay type: functional
[5] = test system: KYSE-150 cell line; experiment: Antiproliferative activity against human KYSE150 cells after 48 hrs by MTT assay; assay type: functional
[6] = test system: PC-3; experiment: Antiproliferative activity against human PC-3 cells after 48 hrs by MTT assay; assay type: functional
[7] = test system: SH-SY5Y; experiment: Antiproliferative activity against human SH-SY5Y cells after 48 hrs by MTT assay; assay type: functional
[8] = test system: HeLa; experiment: Antiproliferative activity against human HeLa cells after 48 hrs by MTT assay; assay type: functional
[9] = biological target: T3, Amine oxidase [flavin-containing] A; experiment: Inhibition of human MAO-A expressed in expressed in baculovirus infected BTI insect cells using tyramine as substrate by peroxidase-coupled method
[10] = biological target: T1, Amine oxidase [flavin-containing] B; experiment: biochemical; remark: listed apart in the source
[11] = biological target: T3, Amine oxidase [flavin-containing] A; experiment: biochemical
[12] = biological target: T3, Amine oxidase [flavin-containing] A
[13] = test system: MV4-11; experiment: Antiproliferative activity against human MV4-11 cells incubated for 6 days by MTS assay; assay type: functional, cell-based; conditions: MV4-11, 144 h
[14] = biological target: T3, Amine oxidase [flavin-containing] A; experiment: Inhibition of MAO-A (unknown origin) preincubated for 20 mins using 5-hydroxytryptamine as substrate followed by substrate addition and measured after 60 mins
[15] = biological target: T1, Amine oxidase [flavin-containing] B; experiment: Inhibition of MAO-B (unknown origin) using benzylamine as substrate preincubated for 20 mins followed by substrate addition and measured after 60 mins
[16] = biological target: LSD1/CoREST complex (Homo sapiens, UniProt O60341); experiment: Inhibition of LSD1/FLAG-tagged CoREST (unknown origin) expressed in HEK293F cells using diMeK4H3(1 to 21) as substrate preincubated for 5 mins followed by substrate addition measured for 5 mins by horseradish peroxidase-coupled assay
[17] = Antiproliferative activity against human MET-1 cells after 72 hrs by [3H] thymidine incorporation assay; assay type: functional, cell-based
[18] = Inhibition of HDAC1/FLAG-tagged CoREST (unknown origin) expressed in HEK293F cells using p53 (379 to 382 residues) (RHKK(Ac) as substrate incubated for 30 mins by fluorescence method; set-up: species or system Homo sapiens
[19] = Antiproliferative activity against human SCCIC1 cells after 72 hrs by [3H] thymidine incorporation assay; assay type: functional, cell-based
[20] = biological target: Lysine-specific histone demethylase 1A (Homo sapiens, UniProt O60341); experiment: Inhibition of human LSD1 expressed in Escherichia coli BL21 (DE3) cells using (ARTK(diMe)QTARKSTGGKAPRKQLA peptide as substrate incubated for 30 mins by HRP reagent based fluorescence method

SMILES: NC1CC1c1cc(F)cc(F)c1OCc1ccccc1 (stereo unspecified)
- Ki [1]: 33 µM
- Ki [2]: > 250 µM
- Ki [3]: 71 µM

SMILES: NC1CC1c1c(F)c(F)c(F)c(F)c1F (stereo unspecified)
- Ki [9]: 270 µM
- Ki [10]: 8.3 µM

SMILES: NC1CC1c1cccc(F)c1OCc1ccccc1 (stereo unspecified)
- Ki [9]: 64 µM
- Ki [10]: 42 µM

SMILES: CN1CCN(C(=O)CN[C@@H]2C[C@H]2c2ccc(OCc3ccccc3)cc2)CC1
- IC50 [12]: 0.51 µM

SMILES: CCN(CC)S(=O)(=O)c1ccc([C@H]2C[C@@H]2NCc2ccccc2)cc1
- IC50 [13]: 15.4 µM
- IC50 [14]: 0.525 µM
- IC50 [15]: 0.702 µM

SMILES: CCN(CC)S(=O)(=O)c1ccc([C@H]2C[C@@H]2N)cc1
- IC50 [13]: > 30 µM
- IC50 [14]: 0.806 µM
- IC50 [20]: 0.123 µM
- IC50 [15]: 0.898 µM

More lines, main results first:

- GI50 [4]: 6 µM
- GI50 [6]: 6 µM
- GI50 [7]: 6 µM
- GI50 [8]: 6 µM
SMILES: NC1CC1c1cccc(OCC[C@H](NC(=O)c2ccccc2)C(=O)NCc2ccccc2)c1 (stereo partly specified)
- GI50 [5]: 6 µM

- GI50 [7]: 17 µM
- GI50 [8]: 35 µM
SMILES: O=C(N[C@@H](CCCCNC1CC1c1ccccc1)C(=O)NCc1ccccc1)c1ccccc1 (stereo partly specified)

- GI50 [7]: 2.4 µM
- GI50 [8]: 4.1 µM
SMILES: O=C(N[C@@H](CCCCNC1CC1c1ccccc1)C(=O)NCc1cccc(C(F)(F)F)c1)c1ccc(-c2ccccc2)cc1 (stereo partly specified)

- IC50 [11]: 87 µM
- GI50 [7]: > 3.3 µM
- GI50 [8]: 10 µM
SMILES: O=C(N[C@@H](CCCCNC1CC1c1ccccc1)C(=O)NCc1ccccc1)c1ccc(-c2ccccc2)cc1 (stereo partly specified)

- IC50 [16]: 1.8 µM
- IC50 [18]: 0.23 µM
SMILES: Nc1ccccc1NC(=O)c1ccc(CCCC(=O)Nc2ccc(C3CC3N)cc2)cc1 (stereo unspecified)
- IC50 [17]: 0.006 µM
- IC50 [19]: 0.041 µM

Reference: ChEMBL document CHEMBL4813911 (J Med Chem, 2020)
